These results are taken from paper PMC8504809 (Clinical and Translational Science, 2021).

For data set [1], the system named is suspension monkey hepatocytes. Nature of the data set: In vitro hepatic uptake clearance in suspension monkey hepatocytes. It is filed as in vitro ADME, cynomolgus monkey. Particulars: 37°C.
The nature of data set [2]: Monkey PBPK model fitting of plasma and liver concentrations. The arrangement: species or system cynomolgus monkey. Particulars: for reduction of active uptake clearance with rifampin inhibition (modeled): PBPK model, RIF vs vehicle; for Kp: plasma and liver.
For data set [3] the following is noted: cited from earlier work.
Data set [4] is described as follows: Plasma pharmacokinetics after single IV cassette infusion. It is filed as in vivo, cynomolgus monkey.
The nature of the next data set: Liver exposure. Type of data set: in vivo, cynomolgus monkey. To be noted: for liver concentration, RIF vs vehicle, at 1 h: 1 h post IV infusion; for increase of liver concentration with RIF at 6 h: average, RIF vs vehicle, N = 2 per time point.
Data set [5] in a line: Urinary excretion in monkeys. To be noted: in-house bile duct cannulation (BDC) monkey study (data not shown). Type of data set: in vivo.
The conditions of data set [6]: clinical trial; cited from earlier work.
The nature of data set [7]: Pharmacokinetics of rifampin after oral administration. Particulars: male, cynomolgus monkey, plasma, 20 mg/kg. Type of data set: in vivo.
For data set [8] the following is noted: monkeys; cited from earlier work.
The conditions of data set [9]: humans; cited from earlier work.
The next data set concerns OATP1B1. To be noted: read-out: Ki against OATP1B1; cited from earlier work.
A further data set concerns OATP1B3. To be noted: read-out: Ki against OATP1B3; cited from earlier work.
The next data set has as its system OAT2. Particulars: read-out: IC50 for OAT2; cited from earlier work.
Where [10] appears, read: PBPK fitted, rifampin, estimate (%CV).
Where [11] appears, read: PBPK fitted, vehicle, estimate (%CV).
Where [12] appears, read: cynomolgus monkey, intravenous, 0.5 mg/kg, Kp,rest, PBPK fitted, vehicle, estimate (%CV).
The mark [13] stands for this setting: cynomolgus monkey, intravenous, 0.5 mg/kg, Kp,scalar, PBPK fitted, vehicle, estimate (%CV).
[14] abbreviates: RIF 20 mg/kg orally vs vehicle, monkeys.
Where [15] appears, read: rifampin, fixed to the value estimated without rifampin.

By Kp is commonly meant the ratio of the level in a tissue or fluid to that in plasma or blood. As a reminder, the Tmax is the time from dosing to the highest level. For orientation: Ki means the equilibrium dissociation constant of an inhibitor or competing ligand from its target. Usually IC50 stands for the concentration that inhibits the measured activity by half.

On to `Nc1c(CC(=O)O)cccc1C(=O)c1ccc(Br)cc1` [Bromfenac], for which, in data set [1], the “hepatocyte uptake in the presence of 200 µM of rifamycin SV” value (“hepatocyte uptake in the presence” below) is given as “partially inhibit”. Besides, in [2] (setting [10]), the “CL,u,int,passive” value was 11.2 (95.3%) ml/min/kg, the “CLu,int,active” value is given as 820 (10.8%) ml/min/kg and the “CLu,int,meta” value is 84.8 (3.8%) ml/min/kg. Also, in data set [2] (setting [11]), the “CL,u,int,passive” value is 13.1 (96.2%) ml/min/kg, the “CLu,int,active” value is reported as 2300 (18.7%) ml/min/kg and the “CLu,int,meta” value is reported as 49.7 (16.9%) ml/min/kg. The “reduction of active uptake clearance with rifampin inhibition (modeled)” value in data set [2] is reported as 64%. For the same compound, the partition ratio (Kp) in data set [2] (setting [12]) was 0.8. Moreover, in [2] (setting [13]), the Kp was 0.5. Besides, the “bromfenac glucuronide excreted in urine, % of the administered dose” value in data set [3] (healthy subjects) is reported as 82.5%. In data set [4] (setting [14]), the “decrease of systemic CL in the presence of RIF” value (“decrease of systemic CL” for short) was found to be 2.1 fold and the “increase of plasma exposure (AUClast) with RIF compared to the vehicle group” value (from here on “increase of plasma exposure (AUClast)”) is 2.1 fold. For the same compound, in the data set “Liver exposure”, the “liver concentrations, vehicle vs RIF pretreated groups, at 1, 2.5, and 6 h” value is “overlapped”.

For `CC1=C(CCC(=O)O)c2cc3nc(cc4[nH]c(cc5[nH]c(cc1n2)c(C)c5CCC(=O)O)c(CCC(=O)O)c4C)C(CCC(=O)O)=C3C` [CP‐III], the “increase of plasma exposure (AUClast)” value in data set [4] (setting [14]) came to 8.8 fold. In the data set “Liver exposure”, the “liver concentration, RIF vs vehicle, at 1 h” value is given as “minimally changed” and the “increase of liver concentration with RIF at 6 h” value stood at 3.7 fold.

For `CN(C)c1ccc2c(c1)c(=O)n(-c1ccc(C[C@H](NC(=O)c3c(Cl)cccc3Cl)C(=O)O)cc1)c(=O)n2C` [Carotegrast], the “hepatocyte uptake in the presence” value in data set [1] was “greatly inhibited”. Besides, the “Urinary excretion, % of total dose” value in [5] was determined as 7.5%. For the same compound, in data set [2] (setting [10]), the “CL,u,int,passive” value is 2.9 (32.4%) ml/min/kg, the “CLu,int,active” value is 95.2 (4.4%) ml/min/kg and the “CLu,int,bile” value is listed as 11.7 (0.1%) ml/min/kg. Moreover, in data set [2] (setting [11]), the “CL,u,int,passive” value was 4.1(11.8%) ml/min/kg, the “CLu,int,active” value is listed as 1154.1 (5.2%) ml/min/kg, the “CLu,int,bile” value is on record as 16.3 (0.022%) ml/min/kg and the “Kp,rest” value is given as 0.85 (6.1%). Further, the “Kp,scalar” value in data set [2] (setting [11]) is listed as 0.16 (29.4%). For the same compound, in data set [2] (setting [15]), the “Kp,rest” value is on record as 0.85 (fixed) and the “Kp,scalar” value was 0.16 (fixed). In data set [4] (setting [14]), the “decrease of systemic CL” value is “about 10 fold”, the “increase of Cmax with RIF” value is listed as 4.8 fold and the “increase of plasma exposure (AUClast)” value was found to be 9.1 fold. The “volume of distribution (V)” value in [4] (in the presence of RIF) is on record as 0.05 L/kg. Moreover, the “volume of distribution (V)” value in data set [4] (vehicle group (without RIF)) turned out to be 0.11 L/kg. The “liver concentration, RIF vs vehicle, at 1 h” value in the data set “Liver exposure” is listed as “comparable”. Further, the “liver concentrations, RIF-treated vs vehicle group, at 2.5 h and 6 h” value in the data set “Liver exposure” (2.5 h and 6 h) was “higher”. The “average Kp,liver (liver to plasma ratio)” value in “Liver exposure” (without RIF (reduced by RIF treatment), Figure S3) is given as roughly 17.

Turning to `COc1ccccc1[C@H](Cn1c(=O)n(C(C)(C)C(=O)O)c(=O)c2c(C)c(-c3ncco3)sc21)OC1CCOCC1` [GS‐0976], in data set [6], the “pharmacodynamic (PD) effect with potent OATP inhibitor” value was “not altered” and the “plasma concentration with potent OATP inhibitor” value was “increased significantly”.

As for `CO[C@H]1/C=C/O[C@@]2(C)Oc3c(C)c(O)c4c(O)c(c(/C=N/N5CCN(C)CC5)c(O)c4c3C2=O)NC(=O)/C(C)=C\C=C\[C@H](C)[C@H](O)[C@@H](C)[C@@H](O)[C@@H](C)[C@H](OC(C)=O)[C@@H]1C` [RIF, rifampin], in data set [7] (oral), the concentration at 3.25 h came to 20.8 µM and the concentration at 6 h was greater than 10 µM. Besides, the Tmax in [7] (po) lay in the range of 3.5 to 4.5 h.

For the compound `CC(C)c1nc(N(C)S(C)(=O)=O)nc(-c2ccc(F)cc2)c1/C=C/[C@@H](O)C[C@@H](O)CC(=O)O` [Rosuvastatin], the “hepatocyte uptake in the presence” value in data set [1] is given as “greatly inhibited”. In data set [2] (setting [10]), the “CL,u,int,passive” value was 0.5 (41%) ml/min/kg, the “CLu,int,active” value was 81.7 (8.5%) ml/min/kg and the “CLu,int,bile” value is given as 2.6 (19.7%) ml/min/kg. Moreover, in [2] (setting [11]), the “CL,u,int,passive” value is given as 1.0 (22.5%) ml/min/kg, the “CLu,int,active” value is listed as 331.8 (13.8%) ml/min/kg and the “CLu,int,bile” value is 2.8 (1.7%) ml/min/kg. The “reduction of active uptake clearance with rifampin inhibition (modeled)” value in data set [2] turned out to be 75%. Also, the Kp in data set [2] (setting [12]) was 2.7. Further, the Kp in [2] (setting [13]) was 1.1. Moreover, the CL renal in data set [2] (cynomolgus monkey, plasma, intravenous, 0.5 mg/kg) came to 4.4 mL/min/kg. Moreover, the “Urinary excretion, % of the absorbed dose” value in data set [8] is recorded as ~ 20%. Moreover, in data set [3] (humans), the “fraction cleared through renal excretion” value is “less than 10%”. In data set [4] (setting [14]), the “decrease of systemic CL” value amounted to 2.2 fold and the “increase of plasma exposure (AUClast)” value was determined as 2.3 fold. Also, the “liver concentrations, vehicle vs RIF pretreated groups, at 1, 2.5, and 6 h” value in the data set “Liver exposure” was “overlapped”.

For `O=C(O)C[C@H](O)C[C@H](O)/C=C/c1c(C2CC2)nc2ccccc2c1-c1ccc(F)cc1` [pitavastatin], the “increase of systemic exposure when co-administered orally with rifampin” value in data set [9] is reported as 5.7 fold.

In the case of `CO[C@H]1/C=C/O[C@@]2(C)Oc3c(C)c(O)c4c(O)c(cc(O)c4c3C2=O)NC(=O)/C(C)=C\C=C\[C@H](C)[C@H](O)[C@@H](C)[C@@H](O)[C@@H](C)[C@H](OC(C)=O)[C@@H]1C` [rifamycin SV], the inhibitory constant (Ki) in the data set with OATP1B1 is 2 µM; in the data set on OATP1B3, 3 µM. The IC50 in the data set with OAT2 is roughly 200 µM.

As to coproporphyrin I [CP‐I], the “increase of plasma exposure (AUClast)” value in data set [4] (setting [14]) worked out at 5.4 fold. In the data set “Liver exposure”, the “liver concentration, RIF vs vehicle, at 1 h” value was “minimally changed” and the “increase of liver concentration with RIF at 6 h” value was 3.2 fold.
